Read-outs that look alike come from different tables or passages of the source.
Key:
HEK-hOCT3 cells = assay: MTT drug sensitivity assay in HEK-hOCT3 cells; assay type: cell-based, human
Description: (§1) Cytotoxicity of the platinum-based compounds was measured by MTT (thiazolyl blue tetrazolium bromide) assay. Cells were seeded in 100 μl of the culture medium without any antibiotics in 96-well plates at a predetermined cell density. For HEK 293 cells, poly-D-lysine coated plates were used. […] For the OCT inhibitor studies, the inhibitors (i.e., disopyramide or cimetidine) were added to the medium at a specified concentration immediately before the addition of the platinum-based compounds. After incubation for a specified time period, the drug-containing medium was replaced with fresh, drug-free medium and the incubation was continued for a total of 72 hours (start from the addition of platinum-based compounds). Then, the MTT assay was performed similarly as described in Alley et al., Cancer Res., 48:589-601 (1988). […] The maximal cell growth was the cell growth in the medium without any platinum-based compounds; C is the concentration of the platinum-based compound, and γ is the slope factor.
(§2) Briefly, the cells were seeded in 96-well plates at a density of 5,000 cells/well for the transfected MDCK cells or 12,000 cells/well for the transfected HEK 293 cells. The platinum-based drugs were added on the following day. After the specified time periods of drug exposure, the drug-containing medium was replaced with fresh, drug-free medium, and the incubation was continued for a total of 72 hours (start from the time when the drug was added). After incubation, the cell growth was determined by an MTT assay. Data are expressed as mean±SD from 3 to 6 independent experiments with each performed in quadruplicate. The resistance factor (RF) was defined as the ratio of the mean IC50 value in the MOCK cells to that in the OCT-transfected cells.

MDCK-hOCT1 cells [1] = assay: Platinum-DNA adduct formation in MDCK-hOCT1 cells; assay type: cell-based, canine
Description: After incubation at 37° C. and 5% CO2 for 2 hours, the cells were washed with ice-cold PBS three times and harvested. The genomic DNA was isolated from the cells and the platinum content associated with DNA was determined by ICP-MS and normalized for DNA content. Data are expressed as mean±SD from a typical experiment performed in triplicate. Two independent experiments were conducted and similar results were obtained.
After incubation, the cells were washed with ice-cold PBS three times and harvested. Genomic DNA was isolated from the harvested cells and the DNA-associated platinum content was determined by ICP-MS and normalized for the DNA content. Data are expressed as mean±SD of three measurements.
The platinum content associated with genomic DNA was determined as described in Samimi et al., Clin. Cancer Res., 10:4661-4669 (2004) with some modifications. Briefly, the cells were grown in 100 mm×20 mm dishes in the culture medium without any antibiotics to over 90% confluence. For HEK 293 cells, poly-D-lysine coated dishes were used. Then, the cells were incubated in the culture medium containing the specified concentrations of the platinum-based compounds at 37° C. in 5% CO2 for 2 hours (or 25 min as specified). In some experiments, phosphate buffer (PB: 1.06 mM KH2PO4, 2.97 mM Na2HPO4, pH 7.4) containing 155 mM NaCl (PB—Cl buffer) or 103 mM Na2SO4 (PB—SO4 buffer) was used instead of the culture medium as specified. For the OCT inhibitor study, the incubation medium (buffer) also contained disopyramide or cimetidine). If PB—Cl or PB—SO4 buffer was used, the cells were washed with the same buffer once before drug incubation. After incubation, the cells were washed with ice-cold PBS, scraped, and pelleted. Genomic DNA was isolated from the cell pellets using the Wizard® Genomic DNA Purification Kit (Promega, Madison, Wis.) following the manufacturer's instructions. Briefly, the cells were lysed with Nuclei Lysis Solution. After RNA digestion and protein precipitation, the lysates were centrifuged and the resulting supernatant was aliquoted. The genomic DNA prepared from two different aliquots of the supernatant was used for platinum and DNA content determination, respectively. For the determination of platinum, the DNA samples were treated with 70% nitric acid at 65° C. and diluted in the same way as described above. The platinum content was analyzed using ICP-MS and the DNA content was measured by absorption spectroscopy.

HEK-MOCK cells = assay: MTT drug sensitivity assay in HEK-MOCK cells (control of HEK-hOCT2); assay type: cell-based, human
Description: Cytotoxicity of the platinum-based compounds was measured by MTT (thiazolyl blue tetrazolium bromide) assay. Cells were seeded in 100 μl of the culture medium without any antibiotics in 96-well plates at a predetermined cell density. For HEK 293 cells, poly-D-lysine coated plates were used. After overnight incubation, the platinum-based compounds were then added to the culture medium to give the indicated final concentrations. For the OCT inhibitor studies, the inhibitors (i.e., disopyramide or cimetidine) were added to the medium at a specified concentration immediately before the addition of the platinum-based compounds. After incubation for a specified time period, the drug-containing medium was replaced with fresh, drug-free medium and the incubation was continued for a total of 72 hours (start from the addition of platinum-based compounds). Then, the MTT assay was performed similarly as described in Alley et al., Cancer Res., 48:589-601 (1988). […] The maximal cell growth was the cell growth in the medium without any platinum-based compounds; C is the concentration of the platinum-based compound, and γ is the slope factor.
as §2

MDCK-hOCT1 cells [2] = assay: MTT drug sensitivity assay in MDCK-hOCT1 cells; assay type: cell-based, canine
Description: as §1, §2
Briefly, MDCK cells were seeded at a density of 5,000 cells/well in 96-well plates and exposed to the test compounds for 7 hours on the following day. After incubation for a total of 72 hours, the cell growth was determined by an MTT assay. The data for carboplatin was taken from Table 1 and was not determined simultaneously with the other compounds. The resistance factor (RF) was defined as the ratio of the mean IC50 value in MDCK-MOCK cells to that in MDCK-hOCT1 cells. Data are expressed as mean±SD from six measurements, and each measurement was performed in quadruplicate.

[3] = 2-hr exposure, disopyramide 150 μM

O=C1[O][Pt]2([NH][C@@H]3CCCC[C@H]3[NH]2)[O]C1=O [oxaliplatin]
IC50 (HEK-hOCT3 cells; drug exposure 7 hour): 2220 ± 410 nM | IC50 (HEK-hOCT3 cells; drug exposure 24 hour): 620 ± 190 nM | IC50 (HEK-hOCT3 cells; drug exposure 72 hour): 690 ± 190 nM | rb in MDCK-hOCT1 (MDCK-hOCT1 cells [1]; 20 μM, PB—Cl, 25 min): 3.08±0.41×10^−6 | rb in MDCK-hOCT1 (MDCK-hOCT1 cells [1]; 20 μM, PB—SO4, 25 min): 1.31±0.29×10^−6 | Pt-DNA adduct level in MDCK-hOCT1 (MDCK-hOCT1 cells [1]; 20 μM, chloride free buffer PB—SO4, 25 min): 0.00398±0.00089 pmol/μg DNA | DNA-associated platinum level in MDCK-hOCT1 (MDCK-hOCT1 cells [1]; 20 μM, chloride-containing buffer PB—Cl, 25 min): 0.00933±0.00124 pmol/μg DNA | platinum-DNA adduct level in MDCK-hOCT1, disopyramide-treated (MDCK-hOCT1 cells [1]; [3]): 0.0217±0.0019 pmol/μg DNA | rb in MDCK-hOCT1, disopyramide-treated (MDCK-hOCT1 cells [1]; [3]): 7.16±0.63×10^−6 | platinum-DNA adduct level in MDCK-hOCT1 (MDCK-hOCT1 cells [1]; 2-hr exposure, oxaliplatin 10 μM, culture medium): 0.0457±0.0011 pmol/μg DNA | IC50 (HEK-MOCK cells; co-incubation with cimetidine 1.5 mM, read-out: IC50 in HEK-MOCK, cimetidine-treated): 9500 ± 2950 nM | IC50 (HEK-MOCK cells; drug exposure 7 hour, Table 2, read-out: IC50 HEK-MOCK): 2990 ± 1510 nM | IC50 (HEK-MOCK cells; drug exposure 24 hour, Table 2, read-out: IC50 HEK-MOCK): 1500 ± 690 nM | IC50 (HEK-MOCK cells; drug exposure 72 hour, Table 2, read-out: IC50 HEK-MOCK): 930 ± 56 nM | IC50 (MDCK-hOCT1 cells [2]; SAR study Table 4, 7 hours of drug exposure, read-out: IC50 MDCK-hOCT1): 480 ± 190 nM | IC50 (MDCK-hOCT1 cells [2]; co-incubation with disopyramide 150 μM, read-out: IC50 in MDCK-hOCT1, disopyramide-treated): 22800 ± 10500 nM | IC50 (MDCK-hOCT1 cells [2]; disopyramide study (FIG. 2D), without disopyramide, read-out: IC50 in MDCK-hOCT1, control): 3790 ± 1570 nM | IC50 (MDCK-hOCT1 cells [2]; drug exposure 7 hour, MTT at 72 hours, Table 1, read-out: IC50 MDCK-hOCT1): 3890 ± 1300 nM | IC50 (MDCK-hOCT1 cells [2]; drug exposure 24 hour, MTT at 72 hours, Table 1, read-out: IC50 MDCK-hOCT1): 1790 ± 580 nM | IC50 (MDCK-hOCT1 cells [2]; drug exposure 72 hour, Table 1, read-out: IC50 MDCK-hOCT1): 1680 ± 270 nM

— US20100028259A1, “USE OF ORGANIC CATION TRANSPORTERS FOR CANCER DIAGNOSIS AND THERAPY” (The Regents of the University of California, priority 2006, published 2010)
